Source: US20050014806A1, “Substituted isoxazoles and their use as antibiotics” (priority 2001, published 2005)
Values after ≈ are worked out from the molar mass of the structure shown.

Tests used:
[1] = system: Streptococcus faecalis (BCM-010); assay: MIC by microdilution in microtiter plate, BCM-010; assay type: cell-based; settings: incubation 24 h at 35° C.; for MIC: Enterococcus faecalis
Procedure: (§1) In order to assess the antimicrobial activity of the compounds of the present invention a method of microdilution in microtiter plate was used. The compounds were diluted in a nutritious medium and, subsequently, distributed by two-fold serial dilutions in 96 well plates. Then, plates were inoculated with a bacterial suspension. After incubation for 24 h at 35° C. the minimum inhibitory concentration (MIC) of the drug in […] was determined as the lowest concentration of compound which inhibits the growth of the bacterium. Results included in Table 1 illustrate the antimicrobial activity of some of the compounds of the present invention in comparison with thus obtained with two compounds (linezolid and eperezolid) of a known antimicrobial activity. The antimicrobial activity of the compound versus Streptococcus faecalis (BCM-010, strain designation as for SALVAT collection) Staphylococcus aureus (BCM-012, strain designation as for SALVAT collection) and Moraxella catarrhalis (BCM-015, strain designation as for SALVAT collection), respectively, is shown in the different columns.

[2] = system: Staphylococcus aureus (BCM-012); assay: MIC by microdilution in microtiter plate, BCM-012; assay type: cell-based; settings: incubation 24 h at 35° C.
Procedure: as §1

[3] = system: Moraxella catarrhalis (BCM-015); assay: MIC by microdilution in microtiter plate, BCM-015; assay type: cell-based; settings: incubation 24 h at 35° C.
Procedure: as §1

[4] = system: HCT-116; assay: cells; assay type: cell-based, human
Procedure: (§2) Antitumoral activity of the compounds of the present invention was evaluated by determining in vitro cell growth inhibition of 2 human colon adenocarcinome cell lines. The SBR (Sulphorhodamine B) protein dye assay described by the NCI (National Cancer Institute) was used. Results of Table 2 illustrate the antiproliferative activity of some of the compounds of the present invention versus the one obtained with exisulind (sulindac sulfone).

[5] = system: HT-29; assay: cells; assay type: cell-based, human
Procedure: as §2

Compound	MIC [1]	MIC [2]	MIC [3]	also measured
CC(=O)NC[C@H]1CN(c2ccc(N3CCN(C(=O)CO)CC3)c(F)c2)C(=O)O1 [Eperezolid, eperezolid, reference compound]	4 µg/mL (≈ 10.1 µM)	2 µg/mL (≈ 5.07 µM)	8 µg/mL (≈ 20.3 µM)	
OCc1ccn(-c2ccc(-c3cc(CNc4ccon4)on3)cc2F)c1 [Example 23, (1-{2-fluoro-4-[5-(isoxazol-3-ylaminomethyl)-isoxazol-3-yl]phenyl}-1H-pyrrol-3-yl)methanol]	1 µg/mL (≈ 2.82 µM)	0.5 µg/mL (≈ 1.41 µM)	4 µg/mL (≈ 11.3 µM)	
N#Cc1ccc(OCC(=O)N2CCN(c3ccc(-c4cc(CNc5ccon5)on4)cc3F)CC2)cc1 [Example 17, 3-[3-fluoro-4-(4-cyanophenoxyacetyl)piperazin-1-ylphenyl]-5-(isoxazol-3-ylaminomethyl)isoxazole]	2 µg/mL (≈ 3.98 µM)	2 µg/mL (≈ 3.98 µM)		
O=C(COc1ccccc1)N1CCN(c2ccc(-c3cc(CNc4ccon4)on3)cc2F)CC1 [Example 7, 1-(4-{2-fluoro-4-[5-(isoxazol-3-ylaminomethyl)-isoxazol-3-yl]-phenyl}piperazin-1-yl)-2-phenoxyethanone]	4 µg/mL (≈ 8.38 µM)	2 µg/mL (≈ 4.19 µM)		
Cc1cn(-c2ccc(-c3cc(CNc4cc(C)ns4)on3)cc2F)cn1 [Example 34, {3-[3-fluoro-4-(4-methylimidazolyl)phenyl]isoxazol-5-ylmethyl}-(3-methyl-isothiazol-5-yl)amine]	1 µg/mL (≈ 2.71 µM)	1 µg/mL (≈ 2.71 µM)	4 µg/mL (≈ 10.8 µM)	
CC(=O)NC[C@H]1CN(c2ccc(N3CCOCC3)c(F)c2)C(=O)O1 [Linezolid, linezolid, reference compound]	4 µg/mL (≈ 11.9 µM)	2 µg/mL (≈ 5.93 µM)	4 µg/mL (≈ 11.9 µM)	
O=C(Cn1cncn1)N1CCN(c2ccc(-c3cc(CNc4ccon4)on3)cc2F)CC1 [Example 8, 3-[3-fluoro-4-(4-(1,2,4-triazol-1-yl)acetyl)piperazin-1-ylphenyl]-5-(isoxazol-3-ylaminomethyl)isoxazole]	4 µg/mL (≈ 8.84 µM)	2 µg/mL (≈ 4.42 µM)		
sulindac sulfone [Exisulind, reference compound]				Cell viability percentage at 100 μM HCT-116 [4]: 44.1%; Cell viability percentage at 100 μM HT-29 [5]: 38.1%
O=C(Cn1cccn1)N1CCN(c2ccc(-c3cc(CNc4ccon4)on3)cc2F)CC1 [Example 6]	4 µg/mL (≈ 8.86 µM)	2 µg/mL (≈ 4.43 µM)	> 16 µg/mL	
O=C(COc1ccc([N+](=O)[O-])cc1)N1CCN(c2ccc(-c3cc(CNc4ccon4)on3)cc2F)CC1 [Example 14, 3-[3-fluoro-4-(4-nitrophenyloxyaetyl)piperazin-1-ylphenyl]-5-(isoxazol-3-ylaminomethyl)isoxazole]	2 µg/mL (≈ 3.83 µM)	1 µg/mL (≈ 1.91 µM)		
O=C(CO)N1CCN(c2ccc(-c3cc(CNc4ccon4)on3)cc2F)CC1 [Example 1, 3-[3-fluoro-4-(hydroxyacetyl)piperazin-1-ylyhenyl]-5-(isoxazol-3-ylaminomethyl)isoxazole]	4 µg/mL (≈ 9.97 µM)	2 µg/mL (≈ 4.98 µM)	8 µg/mL (≈ 19.9 µM)	
O=C(c1ccno1)N1CCN(c2ccc(-c3cc(CNc4ccon4)on3)cc2F)CC1 [Example 3]	4 µg/mL (≈ 9.12 µM)	2 µg/mL (≈ 4.56 µM)		
C#CCOCC(=O)N1CCN(c2ccc(-c3cc(CNc4ccon4)on3)cc2F)CC1 [Example 18, 3-[3-fluoro-4-(3-propyn-1-yloxyacetyl)piperazin-1-ylphenyl]-5-(isoxazol-3-ylaminomethyl)isoxazole]	4 µg/mL (≈ 9.1 µM)	2 µg/mL (≈ 4.55 µM)		
COc1ccccc1NCc1cn(-c2ccc(-c3cc(CNc4ccon4)on3)cc2F)cn1 [Example 29, [3-(3-fluoro-4-{4-[(2-methoxiphenylamino)-methyl]imidazol-1-yl}phenyl)isoxazol-5-ylmethyl]isoxazol-3-ylamine]	1 µg/mL (≈ 2.17 µM)	0.5 µg/mL (≈ 1.09 µM)	4 µg/mL (≈ 8.69 µM)	
O=C(COc1ccc2ncccc2c1)N1CCN(c2ccc(-c3cc(CNc4ccon4)on3)cc2F)CC1 [Example 22, 1-(4-{2-fluoro-4-[5-(isoxazol-3-ylaminomethyl)-isoxazol-3-yl]-phenyl}piperazin-1-yl)-2(quinolin-6-yloxy)ethanone]	1 µg/mL (≈ 1.89 µM)	0.5 µg/mL (≈ 0.946 µM)	4 µg/mL (≈ 7.57 µM)	
O=C(COc1cccnc1)N1CCN(c2ccc(-c3cc(CNc4ccon4)on3)cc2F)CC1 [Example 11, 3-[3-fluoro-4-(3-pyridyloxyacetyl)piperazin-1-ylphenyl]-5-(isoxazol-3-ylaminomethyl)isoxazole]	4 µg/mL (≈ 8.36 µM)	2 µg/mL (≈ 4.18 µM)		
O=Cc1ccn(-c2ccc(-c3cc(CNc4ccon4)on3)cc2F)c1 [Example 5]	1 µg/mL (≈ 2.84 µM)	1 µg/mL (≈ 2.84 µM)	8 µg/mL (≈ 22.7 µM)	

Compound	MIC [1]	MIC [2]	MIC [3]	also measured
Cc1cc(NCc2cc(-c3ccc(-n4ccnc4)c(F)c3)no2)sn1 [Example 32, [3-(3-fluoro-4-imidazol-1-ylphenyl)isoxazol-5-ylmethyl]-(3-methylisotiazol-5-yl)amine]	1 µg/mL (≈ 2.81 µM)	1 µg/mL (≈ 2.81 µM)		
O=C(Cn1cccc1)N1CCN(c2ccc(-c3cc(CNc4ccon4)on3)cc2F)CC1 [Example 10, 3-[3-fluoro-4-(4-(1-pyrrolyl)acetyl)piperazin-1-ylphenyl]-5-(isoxazol-3-ylaminomethyl)isoxazole]	4 µg/mL (≈ 8.88 µM)	2 µg/mL (≈ 4.44 µM)	> 16 µg/mL	
N#Cc1ccn(-c2ccc(-c3cc(CNc4ccon4)on3)cc2F)c1 [Example 25]	0.5 µg/mL (≈ 1.43 µM)	0.5 µg/mL (≈ 1.43 µM)	16 µg/mL (≈ 45.8 µM)	
1-(2-fluoro-4-{5-[(3-methylisotiazol-5-ylamino)-methyl]isoxazol-3-yl}phenyl)-1H-imidazol-4-carboxaldehyde [Example 33]				BCM-010 MIC [1]: 2 µg/mL; BCM-012 MIC [2]: 0.5 µg/mL; BCM-015 MIC [3]: 4 µg/mL
O=Cc1ccc(OCC(=O)N2CCN(c3c(F)cc(-c4cc(CNc5ccon5)on4)cc3F)CC2)cc1 [Example 26, 4-[2-(4-{2,6-difluoro-4-[5-(isoxazol-3-ylaminomethyl)isoxazol-3-yl]phenyl}piperazin-1-yl)-2-oxoethoxy]benzaldehyde]	1 µg/mL (≈ 1.91 µM)	0.5 µg/mL (≈ 0.955 µM)	4 µg/mL (≈ 7.64 µM)	
Fc1cc(-c2cc(CNc3ccon3)on2)ccc1-n1ccnc1 [Example 2, 3-(3-fluoro-4-imidazol-1-ylphenyl)-5-(isoxazol-3-ylaminomethyl)isoxazole]	4 µg/mL (≈ 12.3 µM)	2 µg/mL (≈ 6.15 µM)		
O=C(COc1ccc(/C=N\O)cc1)N1CCN(c2c(F)cc(-c3cc(CNc4ccon4)on3)cc2F)CC1 [Example 31, 4-[2-(4-{2,6-difluoro-4-[5-(isoxazol-3]aminomethyl)isoxazol-3-yl-penyl}-piperazin-1-yl)2-oxoethoxy]-benzaldoxime]	1 µg/mL (≈ 1.86 µM)	0.5 µg/mL (≈ 0.928 µM)		
O=Cc1ccc(OCC(=O)N2CCN(c3ccc(-c4cc(CNc5ccon5)on4)cc3F)CC2)cc1 [Example 19, 3-[3-fluoro-4-(4-formylphenyloxyacetyl)piperazin-1-ylphenyl]-5-(isoxazol-3-ylaminomethyl)isoxazole]	0.5 µg/mL (≈ 0.989 µM)	1 µg/mL (≈ 1.98 µM)		
Cc1ccccc1NCc1ccn(-c2ccc(-c3cc(CNc4ccon4)on3)cc2F)c1 [Example 30, (3-{3-fluoro-4-[3-(o-tolylaminomethyl)pyrrol-1-yl]phenyl}isoxazol-5-ylmethyl)isoxazol-3-ylamine]	1 µg/mL (≈ 2.25 µM)	0.5 µg/mL (≈ 1.13 µM)	16 µg/mL (≈ 36.1 µM)	
O=C(c1cccnc1)N1CCN(c2ccc(-c3cc(CNc4ccon4)on3)cc2F)CC1 [Example 9, 3-[3-fluoro-4-(3-pyridylcarbonyl)piperazin-1-ylphenyl]-5-(isoxazol-3-ylaminomethyl)isoxazole]	4 µg/mL (≈ 8.92 µM)	2 µg/mL (≈ 4.46 µM)	> 16 µg/mL	
O=C(COCc1ccccn1)N1CCN(c2ccc(-c3cc(CNc4ccon4)on3)cc2F)CC1 [Example 16, 3-[3-fluoro-4-(2-pyridylmethoxyacetyl)piperazin-1-ylphenyl]-5-(isoxazol-3-ylaminomethyl)isoxazole]	4 µg/mL (≈ 8.12 µM)	2 µg/mL (≈ 4.06 µM)		
O=C(COc1cccc([N+](=O)[O-])c1)N1CCN(c2ccc(-c3cc(CNc4ccon4)on3)cc2F)CC1 [Example 13, 3-[3-fluoro-4-(3-nitrophenyloxyacetyl)piperazin-1-ylphenyl]-5-(isoxazol-3-ylaminomethyl)isoxazole]	2 µg/mL (≈ 3.83 µM)	1 µg/mL (≈ 1.91 µM)		
O=C(COc1ccccn1)N1CCN(c2ccc(-c3cc(CNc4ccon4)on3)cc2F)CC1 [Example 12, 3-[3-fluoro-4-(2-pyridyloxyacetyl)piperazin-1-ylphenyl]-5-(isoxazol-3-ylaminomethyl)isoxazole]	2 µg/mL (≈ 4.18 µM)	2 µg/mL (≈ 4.18 µM)		
O=C(COCc1ccco1)N1CCN(c2ccc(-c3cc(CNc4ccon4)on3)cc2F)CC1 [Example 15, 3-[3-fluoro-4-(2-furylmethoxyacetyl)piperazin-1-ylphenyl]-5-(isoxazol-3-ylaminomethyl)isoxazole]	4 µg/mL (≈ 8.31 µM)	2 µg/mL (≈ 4.15 µM)		
O=Cc1cn(-c2ccc(-c3cc(CNc4ccon4)on3)cc2F)cn1 [Example 27, 1-{2-fluoro-4-[5-(isoxazol-3-ylaminomethyl)isoxazol-3-yl]phenyl}-1H-imidazol-4-carboxaldehyde]	2 µg/mL (≈ 5.66 µM)	0.5 µg/mL (≈ 1.42 µM)	4 µg/mL (≈ 11.3 µM)	
O/N=C\c1ccn(-c2ccc(-c3cc(CNc4ccon4)on3)cc2F)c1 [Example 24]	0.5 µg/mL (≈ 1.36 µM)	0.5 µg/mL (≈ 1.36 µM)	16 µg/mL (≈ 43.6 µM)	
